# Patent US8440442B2, “Method of assaying 5-FU” (Myriad Genetics, Inc, priority 2009, dated 2013)
# Molecular target: T1, dihydropyrimidine dehydrogenase (DPD) (Homo sapiens, UniProt Q12882)
# T1 construct: from tissue; host or cells: donor whole blood (K2EDTA), plasma separated from it, and WBC/buffy coat
# T1 sequence (Q12882 4-1025): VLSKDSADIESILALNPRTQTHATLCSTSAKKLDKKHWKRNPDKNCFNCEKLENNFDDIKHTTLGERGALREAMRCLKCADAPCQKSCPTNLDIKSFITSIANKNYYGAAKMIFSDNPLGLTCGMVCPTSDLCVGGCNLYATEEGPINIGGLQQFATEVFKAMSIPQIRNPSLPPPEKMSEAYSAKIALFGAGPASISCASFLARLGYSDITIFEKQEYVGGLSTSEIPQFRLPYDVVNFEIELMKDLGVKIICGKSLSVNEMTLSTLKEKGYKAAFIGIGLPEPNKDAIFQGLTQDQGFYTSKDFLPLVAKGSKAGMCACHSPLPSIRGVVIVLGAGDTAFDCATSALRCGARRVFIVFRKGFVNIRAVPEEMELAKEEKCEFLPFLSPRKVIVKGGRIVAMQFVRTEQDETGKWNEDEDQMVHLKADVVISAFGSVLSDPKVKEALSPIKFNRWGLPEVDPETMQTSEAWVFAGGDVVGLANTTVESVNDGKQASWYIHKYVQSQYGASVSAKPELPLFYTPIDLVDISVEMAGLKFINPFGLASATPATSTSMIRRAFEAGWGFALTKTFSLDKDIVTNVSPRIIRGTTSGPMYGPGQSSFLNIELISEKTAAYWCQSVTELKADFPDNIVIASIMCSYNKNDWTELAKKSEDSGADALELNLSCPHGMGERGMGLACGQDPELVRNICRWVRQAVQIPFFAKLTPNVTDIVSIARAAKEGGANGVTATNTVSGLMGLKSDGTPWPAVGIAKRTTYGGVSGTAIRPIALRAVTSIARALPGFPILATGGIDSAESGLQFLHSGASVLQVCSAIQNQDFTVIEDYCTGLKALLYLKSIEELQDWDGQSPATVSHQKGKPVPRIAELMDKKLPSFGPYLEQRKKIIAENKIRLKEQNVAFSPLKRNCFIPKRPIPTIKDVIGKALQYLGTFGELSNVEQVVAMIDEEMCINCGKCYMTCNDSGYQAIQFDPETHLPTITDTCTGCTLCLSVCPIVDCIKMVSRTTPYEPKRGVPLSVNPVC
# Assay: 5-Vinyluracil, 5-iodouracil and gimeracil as stabilizer of 5-FU in spiked donor blood
# Type: biochemical
# Settings: 500 ng/mL 5-FU; 5-iodouracil 10/40 μg/mL, 5-vinyluracil 5/20 μg/mL, gimeracil 300/1,200 ng/mL; 45 minutes room temperature (FIG. 3)
# Method: In the following illustrative examples, 5-FU was measured using an antibody-based agglutination assay on the Olympus AU680 Analyzer using an antibody disclosed in U.S. Pat. No. 7,205,116. Specifically, the concentration of 5-FU in a sample is determined based on the absorbance of a sample, which is determined by the amount of aggregation by the nanoparticles. The system requires two reagents, which when mixed in the absence of free 5-FU will form large aggregates of nanoparticles and scatter light to result in a higher absorption value. In the presence of free 5-FU, the agglutination reaction becomes somewhat inhibited and scattering of light is less, causing a lower absorption value. The instrument is calibrated twice monthly, and a curve is generated (Absorbance vs. 5-FU concentration). Absorbance values from individual samples are compared against this curve to determine concentration.
# Generally in the agglutination assay, 95 μl of a buffer containing 5-FU-labeled amino-dextran is pipetted to a cuvette, followed by 7 μL of a filtered plasma sample. The sample and reagent are mixed and then incubated for about 3.5 minutes. 95 μl of 5-FU antibody-conjugated nanoparticles is pipetted into the cuvette and mixed. The complete reaction incubates for about 6.2 minutes. A series of 27 measurements at 600 nm are taken at regular intervals by the AU680 analyzer throughout this process, and 5-FU concentration is calculated using the measurements from two specific time points.
# Three tubes of blood (spray-on K2EDTA tubes, 10 mL) was drawn from each of six donors, and blood tubes were gently inverted several times to mix anti-coagulant. Blood was pooled and kept separate by donor. An aliquot of each blood sample was transferred to a new conical tube, and a calculated volume of stock 5-FU (at 200 ng/μL) was spiked into each blood sample for a final concentration of 500 ng/mL 5-FU. Each blood sample was aliquotted to a set of four tubes (5 mL blood per tube). Each set of tubes was different, but included a combination of the conditions below: […]
compound,measurement,value
"Oc1cc(O)c(Cl)cn1 [Gimeracil, 5-chloro-2,4-dihydroxypyridine]",stabilizing 5-FU in blood samples,effective
